The values below come from patent US10444227B2, “Neural networks formed from cells derived from pluripotent stem cells” (FUJIFILM Cellular Dynamics, Inc., priority 2014, dated 2019).

“Also recorded” adds a separate entry of the source.

For the assay, the system named is iCell® DopaNeuron cultures. As to the kind of experiment: Excitability pharmacology on network bursting, multi-electrode array (MEA) recording. Format: cell-based, human. The note with it: FIG. 11. An excerpt:
The following methods may be used to culture neural cells on a Mestro Multielectrode Array (MEA). iCell® Neurons are thawed and plated into a 48-well MEA plate pre-coated with […] Polyethyleneimine (PEI; Sigma) solution. On day 1 post-plating, 100% of spent medium is replaced with Neurobasal-A medium (NBA; Life Technologies) +10% KnockOut Serum Replacement (KSR; Life Technologies). On day 5 post-plating, 50% of spent medium is replaced with NBA +10% KSR. On day 8 post-plating, baseline activity is recorded, cells are treated with compounds, and the activity is subsequently recorded.
Data analysis and acquisition may be performed using AxIS Software (Axion Integrated Studio, Axion BioSystems). At or after day 8 post-plating, the neuronal preparation may be suitable for data acquisition. Data acquisition can include a pre-application recording (baseline), a compound application recording, followed by a post-application recording (dose). Electrical activity may be acquired using the AxIS Software. The CDlneuronconfig.datastream file can ensure the appropriate data acquisition settings are loaded into the AxIS Software.
In these experiments, iCell® DopaNeurons, iCell® Neurons, and iCell® Astrocytes were obtained from Cellular Dynamics International, Inc. (Madison, Wis.), mixed and cultured on MEA plates as described in Example 1. Cells were cultured in BrainPhys media (Bardy et al., 2015) obtained from the Salk Institute (La Jolla, Calif.).
Two examples of excitability pharmacology, THIP (top) and L-655,708 (bottom), on iCell® DopaNeuron cultures are shown in FIG. 11. THIP activates tonic inhibition, while L-655,708 decreases tonic inhibition.

With `CCOC(=O)c1ncn2c1[C@@H]1CCCN1C(=O)c1cc(OC)ccc1-2` [L-655,708], the “'after-quiet' following network burst” value is on record as “abolished”, the “continuous rumbling of activity” value is reported as “inducing a continuous rumble of activity that dominated activity; also recorded: inducing a continuous rumbling of activity”, the network burst intensity entry was “neither pharmacological agent altered network burst intensity” and the network synchrony result is listed as “de-synchronized the network”. Also, the post-bursting behaviors result is on record as “both altered post-bursting behaviors”.
Turning to `Oc1noc2c1CCNC2` [THIP], the network burst intensity entry is “neither pharmacological agent altered network burst intensity”, the “post-burst rumbling time (duration of post-burst rumble)” value is on record as “shortened”, the post-bursting behaviors result was “both altered post-bursting behaviors” and the “time (duration) of the entire burst” value was “shortened the time of the entire burst; also recorded: shortened the durations of the entire burst”.
